Patent US10350168B2, “Dermal delivery compositions comprising active agent-calcium phosphate particle complexes and methods of using the same” (Laboratory Skin Care, Inc., priority 2009, dated 2019)
Several values for one entry are separate records, joined by “and”; a condition that tells them apart may be missing. Equal entries are not always repeated. Each block holds one compound with its values, some of them ahead of it.

Experiments:
[1] = Optimum pH for producing active agent-calcium phosphate complexes; assay type: physicochemical
Source text: In the following tables, the specific solvent systems are examples of solvent systems that may be used.

[2] = Adapalene saturated solutions in ethanol and DMSO; assay type: physicochemical
Description: (§1) • Calcium phosphate particles • Adapalene, Sekhsaria Chemicals Limited, India • DMSO, Fisher Scientific, Product No. D159-4 • Ethanol, Fisher Scientific, Product No. AC61511-0010 Methods: • i. […] The suspensions were mixed for 30 min, and centrifuged at 2000×g for 10 min in a bench top centrifuge. • iv. The absorbance of supernatants were measured at 319 nm (the detection wavelength for Adapalene) by UV spectrophotometer. • v. […]

[3] = Influence of solvent on binding of Adapalene to calcium phosphate particles (UV 319 nm); assay type: physicochemical
Description: as §1

[4] = Stability (activity) of ascorbic acid at 50° C. with and without calcium phosphate particles; assay type: physicochemical; settings: for activity of ascorbic acid, 2 um: bound to 2 μm calcium phosphate particles; for activity of ascorbic acid, Control: without calcium phosphate particles
Description: 11.9 mg of ascorbic acid was dissolved in 30 ml of water. 2 g of 2 μm calcium phosphate particles were suspended in 19.5 ml of water and the pH was adjusted to pH 7.14 with HCl. 0.5 ml of ascorbic acid solution (0.40 mg/ml) was mixed in the suspension of calcium phosphate particles, which reduced the pH to 7.05. The suspension (pH 7.05) of calcium phosphate particles including 10 μg/ml of ascorbic acid was incubated at 50° C. for 0.5 to 5 hours. The heat-denaturation of ascorbic acid was terminated by cooling the suspension in an ice bath for 15 minutes. In order to release bound ascorbic acid from calcium phosphate particles to measure the stabilization effect, the pH of each suspension was adjusted to pH 5 with HCl and centrifuged at 3,000 rpm for 10 minutes. The supernatant obtained was measured at 265 nm. As a control, a 10 μg/ml of ascorbic acid solution was also incubated and measured by the same procedures without calcium phosphate particles. The activity of ascorbic acid was calculated by the following formula: The activity of ascorbic acid (%)=(A265nm of the supernatant after incubation/A265nm of the ascorbic acid before incubation)×100 The same procedures were repeated with 10 μm calcium phosphate particles. b. Results

[5] = Tape-stripping analysis of topical application of active-calcium phosphate complexes; assay type: in vivo; settings: human forearm, ten tape strips
Description: The purpose of this study was to detect the distribution of actives in the stratum corneum following topical application of the active-calcium phosphate particles • Method: The distribution of STAY C50 within the stratum corneum was assessed by serial tape stripping of the skin to which a STAY C50-calcium phosphate particle formulation was applied. An application site on the forearm of a human subject was marked and 200 μl of the formulation spread by spatula. The site was allowed to dry for 10 minutes and then followed by ten pre-weighed tape stripping using strips of (3 in^2) applied to the application site. STAY C50 was extracted from the tape strips by sonicating the samples in water for 30 minutes and analyzing the samples by HPLC. […] An application site on the forearm of a human subject was marked and 200 μl of the formulation spread by spatula. The site was allowed to dry for 10 minutes and then followed by ten pre-weighed tape stripping using strips of (3 in^2) applied to the application site. Lysozyme was extracted from the tape strips by sonicating the samples in water for 30 minutes and analyzing the samples by HPLC. Lysozyme was detected to a depth of 6 tape strips (FIG. 10). 5. Controlled Slow Release of Active Agents by Franz Cell • Purpose: The purpose of this study was to detect riboflavin from riboflavin attached to calcium phosphate particles. […]

[6] = Influence of pH on binding of Salicylic acid to calcium phosphate particles (UV 297 nm); assay type: physicochemical
Description: • Calcium phosphate particles • Salicylic acid, Fisher Scientific, Part No. A277-500 Methods: • i. 23.2 mg of Salicylic acid was dissolved in 1 ml of ethanol. • ii. 4 g of calcium phosphate particles were suspended in 39.8 ml of water and the pH was adjusted close to the targeted pH with HCl. • iii. 0.2 ml of Salicylic acid solution (23.2 mg/ml) was mixed in the suspension of calcium phosphate particles. • iv. The pH was adjusted to each of the target pH values (11.36, 8.34, 7.47, 7.07, 5.99) with HCl. • v. At each pH, a 4.8 ml sample was taken from the suspension. All the samples were centrifuged separately at 2000×g for 10 min. • vi. The absorbance of supernatant was measured at 297 nm (the detection wavelength for Salicylic acid) by UV spectrophotometer. • vii. […]

[7] = Sodium Tocopheryl Phosphate binding to and release from calcium phosphate particles (UV 286 nm); assay type: physicochemical
Description: • Calcium phosphate particles • Sodium Tocopheryl Phosphate (TPNa), Showa Denko KK • Ethanol, Fisher Scientific, Product No. AC615090020 Methods: • i. 20 mg of TPNa was dissolved in 40 ml of water by gently mixing (0.5 mg/ml). • ii. 3 g of calcium phosphate particles was mixed with 30 ml of TPNa solution at 0.5 mg/ml, and mixed for 30 min. • iii. The binding suspension was centrifuged at 2000×g for 10 min. The supernatant was transferred to new tube, and centrifuge again at 2000×g for 10 min to clarify. The final supernatant was analyzed with an UV spectrophotometer at 286 nm to quantitate free TPNa and calculate the binding. Approximately 100% of TPNa in the binding suspension was attached to calcium phosphate particles. • iv. The pellet of TPNa calcium phosphate complex was re-suspended in 60% ethanol to release the bound TPNa. • v. The release suspension in 60% ethanol was centrifuged at 2000×g for 10 min. The supernatant was analyzed with an UV spectrophotometer at 286 nm to quantitate free TPNa released.

[8] = Argireline binding to calcium phosphate particles with or without sodium lauryl sulfate pretreatment; assay type: physicochemical
Description: • Argireline to calcium phosphate particles was pretreated with sodium lauryl sulfate Materials: • Calcium phosphate particles • Argireline, (Acetyl Hexapeptide-8), Lipotec S.A. • Sodium lauryl sulfate (SLS), Colonial Chemical, Inc. Methods: • i. Argireline was dissolved in water as a 10 mg/ml solution. • ii. Calcium phosphate particles were mixed with 10 ml of 0.1% SLS for 5 min. […] The pellet was re-suspended in 20 ml water, centrifuged at 2000×g for 10 min, and the washing supernatant was discarded. The washing step was repeated twice. The water contained in the pellet was determined. The final pellet was used in the binding study. • iii. Calcium phosphate particles (SLS treated or no SLS treatment) were mixed with water. HCl (or NaOH) was added to adjust the pH of Calcium phosphate particles suspension to targeted pH including neutral and pH˜10. • iv. Argireline stock at 10 mg/ml was added to each binding suspensions to be a final concentration of 0.5 mg/ml. After the suspension was mixed for 30 min, the final pH was measured. • v. The binding suspensions were centrifuged at 2000×g for 10 min in the bench top centrifuge. The supernatants were analyzed with Refractive Index detector connected to the Shimadzu HPLC 20A system to quantify the free Argireline in the solution. A size-exclusion HPLC method was developed to quantify Argireline in the supernatants of the binding mixtures. […] The mobile phase was 100% water, and eluted at a rate of 1 ml/min. The eluent was monitored at 205 nm or by a refractive index detector (Shimadzu, Model No. RID-10A). Argireline was observed as a major peak in the chromatogram with retention time of about 14 min. The quantification of Argireline was achieved by external standard calibration. • vi. The Argireline bound was then calculated by subtracting the amount of Argireline detected in the supernatant from the total initial amount in the binding suspension.

[9] = Lysozyme binding to calcium phosphate particles (UV 280 nm); assay type: physicochemical; settings: pH 6.83
Description: • Calcium phosphate particles • Lysozyme, MP biomedicals LLC. Product No. ICN10083405 • Phosphoric acid, Fisher Scientific, Product No. A260500 Methods: • i. 364.7 mg of Lysozyme as dissolved in 18.01 ml of water (20.25 mg/ml). • ii. 0.8 g of calcium phosphate particles were mixed with 4 ml of water, and the pH of the suspension was adjusted to neutral with diluted phosphoric acid. • iii. 4 ml of Lysozyme solution (20.25 mg/ml) was added to the suspension of calcium phosphate particles to achieve a final concentration of 10.124 mg/ml, and a final volume of 8 ml. The final pH was measured. • iv. The suspension was mixed for 30 min, and centrifuged at 2000×g for 10 min in a bench top centrifuge. • v. The absorbance of supernatant was measured at 280 nm (the detection wavelength for Lysozyme) by UV spectrophotometer. • vi. […]

[10] = pH dependent release of lysozyme from lysozyme calcium phosphate complexes; assay type: physicochemical; settings: flow 1 mL/hr, 8 hours
Description: In the stratum corneum, the pH ranges from approximately 4.3 to 5.0 with pH […] with stratum corneum depth. To study calcium phosphate particle release active agent at conditions analogous to skin, two lysozyme calcium phosphate complexes were exposed to buffers of ph 4.8 (0.5 M sodium acetate) and 7.0 (10 mM Bis Tris) for 8 hours. The buffers flowed through the samples at a rate of 1 mL/hr and were collected hourly and analyzed for lysozyme release by monitoring the peak at 280 nm by UV spectrometer. An equivalent mass of lysozyme Calcium phosphate particles complex was vortexed in pH 4.8 buffer to estimate the total available lysozyme in the sample.

[11] = Franz cell transdermal delivery through pig skin; assay type: in vitro ADME; settings: for penetration through skin (riboflavin metabolite in receptor fluid): 8 and 16 hours
Description: Controlled Slow Release of Active Agents by Franz Cell • Purpose: The purpose of this study was to detect riboflavin from riboflavin attached to calcium phosphate particles. Methods: • Circular 6 cm^2 discs of full-thickness pig skin were cut from a larger abdominal specimen. Fat was removed from the dermis-side by scissors and the skin was stored at −20° C. until use. The skin was affixed between the two compartments of the glass diffusion cell (Laboratory Glass Apparatus, Model #LG-1084-LPCT). This allowed an exposed skin area of 5 cm^2 over a receptor compartment volume of 4.5 ml. The diffusion cell was maintained at 37° C.
Penetration Conditions • Topical application intervals were 8 and 16 hrs. The cells were covered with parafilm and shielded from light by aluminum wrap. A receptor fluid of phosphate buffered saline (PBS) was spun at 60 rpm.
Applied Formulations • Riboflavin monophosphate-calcium phosphate particles were prepared to deliver 0.35-1.15 mg riboflavin (20-38% suspensions). • Riboflavin monophosphate in PBS was prepared at 1.5 mg/mL to deliver 0.3-0.45 mg riboflavin. • Formulations were applied by pipette in volumes of 50-100 μl. Riboflavin-calcium phosphate complex applications were allowed to air dry and then equal volume of 0.5 M sodium acetate buffer was pipetted onto the application site. […]
Sample Collection • The skin surface, while still retained in the diffusion cell, was washed twice with 1 mL PBS each time. The skin was removed from diffusion cell and dried and analyzed.
Sample Analysis • Washes and Receptor fluid: The approximate volume of the fluids was determined. […] The supernatant was then removed and analyzed by UV spectrometer. If the UV absorbance was saturated (over >2.0), the samples were diluted with water. The UV absorbance value at 370 nm was recorded. • Skin: The skin was minced and mixed with 5 ml of 10% trichloracetic acid solution. […] If the UV absorbance was saturated (over >2.0), samples were diluted with water. The maximum UV absorbance value at 370 nm was recorded.

Optimum pH ([1]; Loading Solvent Water): 7
Compound: Cc1c(C)c2c(c(C)c1OP(=O)([O-])OC1=C(O)[C@@H]([C@@H](O)CO)OC1=O)CC[C@@](C)(CCC[C@H](C)CCC[C@H](C)CCCC(C)C)O2.[K+] (racemic) [Sepivital, dl-a-tocopheryl 2 L ascorbyl phosphate]

Optimum pH ([1]; Loading Solvent DMSO): 7 | Optimum pH ([1]; Loading Solvent Ethanol): 11 and 7 | saturated solution concentration ([2]; in DMSO): 20.65 mg/mL | saturated solution concentration ([2]; in ethanol): 0.087 mg/mL | Binding capacity of Adapalene to calcium phosphate particles ([3]; in DMSO): 12.55 mg/g | Binding capacity of Adapalene to calcium phosphate particles ([3]; in ethanol): 0.78 mg/g
Compound: COc1ccc(-c2ccc3cc(C(=O)O)ccc3c2)cc1C12CC3CC(CC(C3)C1)C2 [Adapalene]

activity of ascorbic acid, 2 um ([4]; 0 hrs): 100% | activity of ascorbic acid, 2 um ([4]; 0.5 hrs): 85% | activity of ascorbic acid, 2 um ([4]; 2 hrs): 59% | activity of ascorbic acid, 2 um ([4]; 3 hrs): 48% | activity of ascorbic acid, 2 um ([4]; 5 hrs): 35% | activity of ascorbic acid, Control ([4]; 0 hrs): 100% | activity of ascorbic acid, Control ([4]; 0.5 hrs): 36% | activity of ascorbic acid, Control ([4]; 2 hrs): 18% | activity of ascorbic acid, Control ([4]; 5 hrs): 0% | Optimum pH ([1]; Loading Solvent Water): >8.12
Compound: O=C1O[C@H]([C@@H](O)CO)C(O)=C1O [Ascorbic acid]

Optimum pH ([1]; Loading Solvent Ethanol/water): 10
Compound: Oc1ccc(C=Cc2cc(O)cc(O)c2)cc1 [Resveratrol]

delivery depth in stratum corneum ([5]; STAY C50-calcium phosphate particle formulation): 10th layer of stratum corneum
Compound: O=C1O[C@H]([C@@H](O)CO)C([O-])=C1OP(=O)([O-])[O-].[Na+].[Na+].[Na+] [STAY-C50, Sodium Ascorbyl Phosphate]

Salicylic acid Bound ([6]; pH 5.99): 0 µg/g | Salicylic acid Bound ([6]; pH 7.07): 23.8 µg/g | Salicylic acid Bound ([6]; pH 7.47): 97.5 µg/g | Salicylic acid Bound ([6]; pH 8.34): 660.4 µg/g | Salicylic acid Bound ([6]; pH 11.36): 1141.14 µg/g | Optimum pH ([1]; Loading Solvent Ethanol/water): 4.03-7.90
Compound: O=C(O)c1ccccc1O [Salicylic acid]

TPNa in the binding suspension attached to calcium phosphate particles ([7]; 0.5 mg/ml TPNa in water): Approximately 100% | integrity of released TPNa (UV spectroscopy) ([7]; released in 60% ethanol): identical to an unbound control
Compound: Cc1c(C)c2c(c(C)c1OP(=O)([O-])[O-])CCC(C)(CCCC(C)CCCC(C)CCCC(C)C)O2.[Na+].[Na+] (stereo not shown) [TPNa, Sodium Tocopheryl Phosphate]

Optimum pH ([1]; Loading Solvent Water): 6.7-7.8 and 7.8 and 6.4 | Argireline bound ([8]; No pretreatment, pH 7.39): 0.09 mg/g | Argireline bound ([8]; No pretreatment, pH 10.46): 0.05 mg/g | Argireline bound ([8]; SLS treated particles, pH 7.85): 1.19 mg/g | Argireline bound ([8]; SLS treated particles, pH 10.10): 2.15 mg/g
Compound: Acetyl Hexapeptide-8 [Argireline]

Optimum pH ([1]; Loading Solvent Water): 7
Compound: Hyaluronic acid Sodium salt

Compound: Lysozyme: Lysozyme, MP biomedicals LLC
Lysozyme bound to calcium phosphate particles [9]: 6.8 mg/g | lysozyme release from calcium phosphate particles ([10]; pH 4.8 (0.5 M sodium acetate)): most of the lysozyme releasing within the first hour | lysozyme release from calcium phosphate particles ([10]; pH 7.0 (10 mM Bis Tris)): no lysozyme is observed released | depth of detection ([5]; lysozyme-calcium phosphate particle formulation): 6 tape strips

release rate of the active versus aqueous solution ([11]; calcium phosphate particle complex): slower release of the active | penetration through skin (riboflavin metabolite in receptor fluid) ([11]; from aqueous solution (PBS)): penetrated through skin | penetration through skin (riboflavin metabolite in receptor fluid) ([11]; from calcium phosphate particle complex): penetrated through skin
Compound: Riboflavin monophosphate
